Reference: US9549922B2, “Use of eribulin and lenvatinib as combination therapy for treatment of cancer” (priority 2013, dated 2017)
“Also recorded” adds a separate entry of the source.

Columns and labels:
[1] = tested on: A375 human malignant melanoma xenografts; experiment: Antitumor activity in A375 human malignant melanoma xenograft model (tumor volume); format: in vivo; settings: single agent at highest dose: E7389 3.0 mg/kg i.v. Q7Dx2; E7080 15 mg/kg p.o. Q1Dx14; female athymic mice
From the text: Following randomization, drug treatment was initiated.
A value of P<0.05 was considered statistically significant.

in vivo = settings: athymic, mouse
[2] = tested on: NCI-H1993 human non-small cell lung cancer xenografts; experiment: Antitumor activity in NCI-H1993 human non-small cell lung cancer xenografts (tumor volume); format: in vivo, mice; settings: single treatment: E7389 1.5 mg/kg i.v. Q7Dx2; E7080 10 mg/kg p.o. Q1Dx12
Experimental: (§1) Human non-small cell lung cancer cell lines, NCI-H1993 and PC-9, were maintained in monolayer cultures in RPMI-1640 medium supplemented with 10% Fetal Bovine Serum and 1% of Penicillin-Streptomycin-Amphotericin at 37° C. in a 5% CO2 humidified incubator. On the day of inoculation, cells were harvested by Trypsinization, washed, and mixed 1:1 (v/v) with medium/GelTrex. NCI-H1993 and PC-9 human non-small cell lung cancer cells (10×10^6 cells per animal) were inoculated subcutaneously near the right axillary area using a 26-gauge needle in a 0.1 mL volume in female immuncompromised mice (Mouse: BALB/c Slc nu/nu; Japan SLC, Inc.).
(§2) The experiment consisted of a no inject control group, a single agent drug-treated group for either E7389 (1.5 mg/kg) or E7080 (10 mg/kg), and combination drug-treated groups. Each group was composed of five mice. […] Following randomization, drug treatment was initiated. E7389 (1.5 mg/kg) was intravenously administered weekly for two weeks (Q7Dx2). E7080 was orally administered daily for 12 days (Q1Dx12). Both drugs were administered at a volume of 0.1 mL per 10 g body weight.
(§3) Tumor volume was determined by caliper measurements (mm) using the formula Tumor volume (mm^3)=length (mm)×width^2(mm^2)×½
(§4) The mean±SD for tumor volume for each experimental group was calculated. […]

[3] = Relative body weight change in A375 xenograft study; format: in vivo, mice; settings: E7389 alone at 3.0 mg/kg i.v. Q7Dx2
Experimental: The experiment consisted of a vehicle-treated control group, a single agent drug-treated group for either E7389 or E7080, and three combination drug-treated groups (summarized in Table 1). Each group was composed of six mice for a total of 48 mice on the first day of treatment. […] Following randomization, drug treatment was initiated. E7080 was orally administered daily for 14 days (Q1Dx14) at a volume of 0.1 mL per 10 g body weight. E7389 (0.05 mg/kg) was intravenously administered daily for 14 days. In the combination group, E7389 was administered three hours after oral administration of E7080. […]
The general health of the mice was monitored daily. Tumor volume was determined by caliper measurements (mm) using the formula (1×w^2)/2=mm^3, where 1 and w refer to the larger and smaller perpendicular dimensions collected at each measurement. Tumor dimensions and body weight were recorded twice per week starting the first day of treatment. Relative body weight was calculated as follows: Relative body weight=(body weight on day of measurement)/(body weight on first day of treatment).
The data generated consisted of group mean body weights at each measurement and group mean tumor volumes at each measurement. The mean±SEM for tumor volume and relative body weight for each experimental group was calculated.

[4] = tested on: PC-9 human non-small cell lung cancer xenografts; experiment: Antitumor activity in PC-9 human non-small cell lung cancer xenografts (tumor volume); format: in vivo, mice; settings: single treatment: E7389 1.5 mg/kg i.v. Q7Dx2; E7080 10 mg/kg p.o. Q1Dx12
Experimental: as §1, §2, §3, §4

## C=C1C[C@@H]2CC[C@@]34C[C@H]5O[C@@H]6[C@@H](O3)[C@H]3O[C@H](CC[C@@H]3O[C@H]6[C@H]5O4)CC(=O)C[C@@H]3[C@@H](OC)[C@@H](C[C@H](O)CN)O[C@H]3C[C@H]3O[C@@H](CC[C@@H]1O2)C[C@@H](C)C3=C.CS(=O)(=O)O [E7389, (2R,3R,3aS,7R,8aS,9S,I0aR,11S,12R,13aR,13bS,15S,18S,21S,24S,26R,28R,29aS)-2-[(2S)-3-amino-2-hydroxypropyl]hexacosahydro-3-methoxy-26-methyl-20,27-bis(methylene)-11,15:18,21:24,28-triepoxy-7,9-ethano-12,15-methano-9H,15H-furo[3,2-i]furo[2′,3′:5,6]pyrano[4,3-b][1,4]dioxacyclopentacosin-5(4H)-one, methanesulfonate (salt)]
[1]
  antitumor effect (tumor volume): tumor growth delay, but not tumor regression; also recorded: strong antitumor activity
In vivo; other: E7389 i.v., E7080 p.o.
  MTD at 14 days: 3 mg/kg
[2]
  antitumor activity (tumor volume): significant antitumor activity
[3]
  relative body weight change: Body weight loss was observed
[4]
  antitumor activity (tumor volume): significant antitumor activity

## COc1cc2nccc(Oc3ccc(NC(=O)NC4CC4)c(Cl)c3)c2cc1C(N)=O.CS(=O)(=O)O [E7080, 4-[3-chloro-4-[[(cyclopropylamino)carbonyl]amino]phenoxy]-7-methoxy-6-quinolinecarboxamide, methanesulfonate (1:1)]
[1]
  antitumor effect (tumor volume): tumor growth delay, but not tumor regression
In vivo
  MTD at 14 days: 15 mg/kg
[2]
  antitumor activity (tumor volume): significant antitumor activity
[4]
  antitumor activity (tumor volume): significant antitumor activity
